Tested on: GA-primed murine splenocytes
Experiment: Tolerance method for assessing process variability

glatiramer acetate [GA]
AVG expression D8ERTD82E (probe ILMN_2731237): 8.974
AVG expression MYO1F (probe ILMN_2731760): 8.593
AVG expression CDC42EP3 (probe ILMN_2733185): 8.258
AVG expression TLR2 (probe ILMN_2733733): 8.191
AVG expression IL4I1 (probe ILMN_2733778): 13.39
AVG expression CD1D1 (probe ILMN_2734212): 8.262
AVG expression RAMP1 (probe ILMN_2734391): 7.212
AVG expression ISG20 (probe ILMN_2735615): 8.139
AVG expression IL4RA (probe ILMN_2738433): 6.897
AVG expression PDE2A (probe ILMN_2740407): 6.704
AVG expression NDRG3 (probe ILMN_2740628): 7.26
AVG expression IL17F (probe ILMN_2741201): 9.282
AVG expression NUPR1 (probe ILMN_2742042): 7.513
AVG expression CSRP3 (probe ILMN_2742068): 7.26
AVG expression SERPINA3F (probe ILMN_2742861): 9.63
AVG expression MATK (probe ILMN_2743902): 6.954
AVG expression GADD45G (probe ILMN_2744890): 10.65
AVG expression DOCK10 (probe ILMN_2749063): 7.866
AVG expression CSF2 (probe ILMN_2749412): 7.94
AVG expression SPATA13 (probe ILMN_2751037): 10.49
AVG expression 4931429111RIK (probe ILMN_2751111): 6.944
AVG expression PHXR4 (probe ILMN_2751603): 8.973
AVG expression 2210010N04RIK (probe ILMN_2752436): 7.364
AVG expression TGTP (probe ILMN_2754158): 7.894
AVG expression LTF (probe ILMN_2754364): 8.257
AVG expression CD84 (probe ILMN_2754698): 9.661
AVG expression FFAR2 (probe ILMN_2756046): 9.337
AVG expression D7BWG0611E (probe ILMN_2756438): 6.424
AVG expression ENO3 (probe ILMN_2757569): 8.71
AVG expression BC031353 (probe ILMN_2757807): 9.011
AVG expression PRTN3 (probe ILMN_2758029): 6.472
AVG expression SYPL (probe ILMN_2758720): 11.58
AVG expression TMEM66 (probe ILMN_2758878): 8.06
AVG expression CLIC4 (probe ILMN_2761109): 11.63
AVG expression LOC100041103 (probe ILMN_2761720): 7.612
AVG expression TBX21 (probe ILMN_2762983): 8.48
AVG expression BC032203 (probe ILMN_2763739): 10.17
AVG expression ASB2 (probe ILMN_2765759): 8.795
AVG expression CAMP (probe ILMN_2766604): 8.176
AVG expression OCIAD2 (probe ILMN_2766875): 6.716
AVG expression ATP1B1 (probe ILMN_2767615): 7.592
AVG expression IFI30 (probe ILMN_2767918): 10.97
AVG expression PIK3IP1 (probe ILMN_2769772): 7.746
AVG expression TIMP1 (probe ILMN_2769918): 6.577
AVG expression LOC100044439 (probe ILMN_2770066): 9.229
AVG expression IGH-VJ558 (probe ILMN_2772264): 10.58
AVG expression GLIPR2 (probe ILMN_2773900): 10.63
AVG expression HSD11B1 (probe ILMN_2774160): 8.176
AVG expression STFA1 (probe ILMN_2774410): 8.3801
AVG expression HIST1H1C (probe ILMN_2774537): 8.165
AVG expression SPO11 (probe ILMN_2777019): 6.908
AVG expression GCAT (probe ILMN_2777696): 8.955
AVG expression H2-DMA (probe ILMN_2777769): 12.53
AVG expression LTA (probe ILMN_2780247): 8.582
AVG expression CSRP3 (probe ILMN_2789650): 7.602
AVG expression CD177 (probe ILMN_2789900): 6.628
AVG expression IFNG (probe ILMN_2791459): 9.711
AVG expression RFTN2 (probe ILMN_2795178): 7.218
AVG expression IL12RB1 (probe ILMN_2799452): 7.405
AVG expression S100A9 (probe ILMN_2803674): 11.05
AVG expression TMEM108 (probe ILMN_2804559): 7.473
AVG expression PRM1 (probe ILMN_2806549): 6.894
AVG expression ACOT7 (probe ILMN_2807084): 9.352
AVG expression 3110001A13RIK (probe ILMN_2807335): 8.958
AVG expression PPIC (probe ILMN_2810882): 8.651
AVG expression LBH (probe ILMN_2816180): 11.09
AVG expression CPNE4 (probe ILMN_2818246): 7.052
AVG expression DUSP10 (probe ILMN_2818964): 8.287
AVG expression SC4MOL (probe ILMN_2823778): 9.801
AVG expression USP28 (probe ILMN_2828768): 7.665
AVG expression C330023M02RIK (probe ILMN_2833243): 9.988
AVG expression C330023M02RIK (probe ILMN_2833248): 8.672
AVG expression BRWD1 (probe ILMN_2834573): 7.683
AVG expression EG634650 (probe ILMN_2837493): 6.736
AVG expression ACTN1 (probe ILMN_2844996): 9.845
AVG expression PSAP (probe ILMN_2845080): 11.88
AVG expression KLHDC2 (probe ILMN_2845272): 12.06
AVG expression ACTB (probe ILMN_2846865): 9.645
AVG expression HIF1A (probe ILMN_2852034): 7.906
AVG expression TSPAN32 (probe ILMN_2852672): 9.543
AVG expression HIST1H1C (probe ILMN_2855315): 8.506
AVG expression GPR114 (probe ILMN_2856926): 9.59
AVG expression GBP6 (probe ILMN_2860645): 9.559
AVG expression GBP6 (probe ILMN_2860649): 8.264
AVG expression RHOD (probe ILMN_2862379): 6.304
AVG expression FCER1A (probe ILMN_2863390): 7.15
AVG expression OTTMUSG00000000971 (probe ILMN_2864309): 7.999
AVG expression CD83 (probe ILMN_2865016): 12.24
AVG expression GLDC (probe ILMN_2873750): 6.771
AVG expression LYZ (probe ILMN_2878071): 10.5
AVG expression TMEM66 (probe ILMN_2881296): 9.558
AVG expression LRRK2 (probe ILMN_2883267): 9.942
AVG expression PIRA3 (probe ILMN_2883326): 7.604
AVG expression CCR5 (probe ILMN_2888191): 7.88
AVG expression NSG2 (probe ILMN_2890515): 6.466
AVG expression RGS1 (probe ILMN_2897891): 8.707
AVG expression ATP2A3 (probe ILMN_2900462): 10.34
AVG expression GM484 (probe ILMN_2903169): 7.045
AVG expression GADD45G (probe ILMN_2903945): 12.68
AVG expression ICOS (probe ILMN_2906430): 9.445
AVG expression FCGRT (probe ILMN_2917497): 7.496
AVG expression SCD2 (probe ILMN_2919259): 7.493
AVG expression SLC25A1 (probe ILMN_2919263): 9.787
AVG expression OSM (probe ILMN_2919411): 9.631
AVG expression CASP6 (probe ILMN_2923865): 9.522
AVG expression MPO (probe ILMN_2925094): 6.333
AVG expression SIGLECH (probe ILMN_2928599): 6.936
AVG expression 9130211I03RIK (probe ILMN_2930552): 7.36
AVG expression IL4 (probe ILMN_2931334): 8.425
AVG expression TPI1 (probe ILMN_2932359): 11.19
AVG expression LYZS (probe ILMN_2939681): 6.97
AVG expression DGKA (probe ILMN_2940446): 10.5
AVG expression 4933439C20RIK (probe ILMN_2944601): 9.853
AVG expression HP (probe ILMN_2944824): 8.175
AVG expression RAgenericEF4 (probe ILMN_2945940): 7.203
AVG expression CBX7 (probe ILMN_2947234): 7.729
AVG expression ECM1 (probe ILMN_2947526): 10.05
AVG expression NOC4L (probe ILMN_2957862): 9.678
AVG expression CYP27A1 (probe ILMN_2960108): 6.166
AVG expression CYP27A1 (probe ILMN_2960114): 6.441
AVG expression H2-M2 (probe ILMN_2964185): 6.649
AVG expression CREM (probe ILMN_2964986): 7.2
AVG expression FXYD5 (probe ILMN_2967266): 11.61
AVG expression AMPD1 (probe ILMN_2971142): 6.076
AVG expression FCRLA (probe ILMN_2971171): 10.49
AVG expression BLK (probe ILMN_2976440): 10.05
AVG expression BLK (probe ILMN_2976441): 10.82
AVG expression MAN2A2 (probe ILMN_2977791): 6.779
AVG expression TMED8 (probe ILMN_2979248): 8.811
AVG expression D12ERTD553E (probe ILMN_2983525): 9.137
AVG expression EMP3 (probe ILMN_2984744): 11.52
AVG expression SLC15A3 (probe ILMN_2987709): 10.2
AVG expression STFA1 (probe ILMN_2988931): 7.963
AVG expression CLEC4N (probe ILMN_2993314): 7.76
AVG expression OBFC2A (probe ILMN_2996904): 7.798
AVG expression IL27RA (probe ILMN_3002095): 10.52
AVG expression UNC84B (probe ILMN_3004864): 10.87
AVG expression PPA1 (probe ILMN_3005441): 12.45
AVG expression ASNS (probe ILMN_3006123): 7.885
AVG expression MLKL (probe ILMN_3006767): 8.575
AVG expression ABHD14B (probe ILMN_3007862): 7.744
AVG expression FAM169B (probe ILMN_3014674): 10.41
AVG expression CYP4F18 (probe ILMN_3018445): 6.343
AVG expression KIF1B (probe ILMN_3034877): 7.209
AVG expression GBP2 (probe ILMN_3047389): 7.888
AVG expression GLIPR2 (probe ILMN_3053593): 11.06
AVG expression WARS (probe ILMN_3077377): 7.701
AVG expression AHNAK (probe ILMN_3079919): 7.509
AVG expression CYP4F18 (probe ILMN_3090207): 7.952
AVG expression PKIB (probe ILMN_3094853): 9.029
AVG expression TNFRSF9 (probe ILMN_3103746): 8.744
AVG expression TIMP1 (probe ILMN_3103896): 6.734
AVG expression CETN4 (probe ILMN_3105936): 7.334
AVG expression TXNIP (probe ILMN_3112873): 10.81
AVG expression HSD11B1 (probe ILMN_3115917): 8.516
AVG expression CHI3L3 (probe ILMN_3117876): 7.418
AVG expression LMNA (probe ILMN_3121891): 8.355
AVG expression GBP2 (probe ILMN_3122961): 13.72
AVG expression CD27 (probe ILMN_3128992): 10.96
AVG expression BC004728 (probe ILMN_3130403): 9.315
AVG expression BCAT1 (probe ILMN_3131478): 9.235
AVG expression USP18 (probe ILMN_3131679): 9.931
AVG expression YPEL3 (probe ILMN_3132898): 12.77
AVG expression ANXA3 (probe ILMN_3135781): 7.965
AVG expression SESN1 (probe ILMN_3136744): 9.838
AVG expression LIF (probe ILMN_3137287): 6.404
AVG expression LIF (probe ILMN_3137291): 6.545
AVG expression BTBD11 (probe ILMN_3139253): 6.574
AVG expression SEPP1 (probe ILMN_3141048): 6.844
AVG expression CXCL10 (probe ILMN_3142803): 8.707
AVG expression B3GNT8 (probe ILMN_3149776): 7.035
AVG expression NACC2 (probe ILMN_3153982): 7.11
AVG expression WARS (probe ILMN_3156343): 8.996
AVG expression SYTL3 (probe ILMN_3157081): 7.084
AVG expression PRR7 (probe ILMN_3162239): 7.209

Reference: patent US20140193827A1 (TEVA PHARMACEUTICAL INDUSTRIES, LTD., priority 2013, published 2014)
